The source of these data is patent US9598393B2, “Structural variants of mycolactones for use in modulating inflammation, immunity and pain” (priority 2011, dated 2017).

Read-outs that look alike come from different tables or passages of the source. Some results are limits rather than exact numbers.

The subject of data set [1] is epithelial HeLa cell line. The data set can be described thus: Cytopathic activity, MTT assay (effect on global cell metabolic activity). The data set is classed as cell-based, human. Conditions: for Metabolic activity (MA: mean absorbance) (A) % relative to control / IC50: HeLa cells, 48 h, MTT; for IC50: % inhibition relative to control, read-out: Metabolic activity (A): IC50 value (concentration at which the compound induces 50% of mycolactone maximal activity); for cytopathic activity, reduction compared to mycolactones A/B: human; for Metabolic activity (A): corresponding % of mycolactone activity (in brackets): relative to mycolactone (100%). The method, then: (A) The cytopathic activity of mycolactone and variants was assessed in a [3-(4,5-Dimethylthiazol-2-yl)-2,5-Diphenyltetrazolium Bromide] (MTT) assay, using the epithelial HeLa cell line (ATCC®; CCL-2) as a model. Briefly, HeLa cells were plated in 96-well plates (10^4 cells/well) in Dulbecco's Modified Eagle culture medium supplemented with 10% fetal calf serum and 2 mM L-Glutamine. After 16 h, mycolactone or variants dilutions (final concentration 0.4-8 μM) were added to the wells, and incubated with the cells for 48 h, prior to the addition of MTT at 50 μg/ml. After 4 h, culture supernatants were removed and the formed formazan crystals dissolved in dimethyl sulfoxide (DMSO) for absorbance measurement.

Data set [2] relates to HeLa cell. The data set can be described thus: Cytotoxicity by Trypan Blue dye exclusion (cell viability). The data set is classed as cell-based, human. Conditions: for cytotoxicity compared to mycolactones A/B: at 16 μM. The method, then: (B) HeLa cell death being negligible in the concentration and time frame conditions used in (A), the cytotoxicity of 16 μM mycolactone and variants was evaluated after 48 h of incubation by cell exclusion of the Trypan Blue dye. Here, one part of Trypan blue (0.4% in phosphate-buffered saline PBS) was mixed with one part cell suspension (recovered from cell culture wells by trypsin treatment). The mixture was incubated for 3 min at room temperature and unstained (viable) and stained (nonviable) cells counted separately with a hemacytometer.

In data set [3] the test system is IL-2 production by Jurkat T cells. The data set can be described thus: Immunosuppressive activity: activation-induced IL-2 production, ELISA. The data set is classed as cell-based, human. Conditions: for Cytokine production (M.A.: mean absorbance) (C) % relative to control / IC50: Jurkat T cells; for Cytokine production (M.A.: mean absorbance) (C) % relative to control: PMA + calcium ionophore, IL-2 ELISA; for IC50: IL-2, % inhibition relative to control, read-out: Cytokine production (C): IC50 value (concentration at which the compound induces 50% of mycolactone maximal activity); for Cytokine production (C): corresponding % of mycolactone activity (in brackets): relative to mycolactone (100%). The method, then:
(C) The immunosuppressive activity of mycolactone and variants was measured on Jurkat T cells (ATCC®; TIB-152™ clone E6-1), as models of human T lymphocytes. Cells were inoculated in 96-well plates (5×10^5 cells/well in RPMI 1640 medium supplemented with 10% fetal calf serum and 2 mM L-Glutamine) then incubated with serial dilutions of the various compounds for 4 h, and stimulated for 20 h with 50 ng/ml phorbol-12-myristate-13-acetate (PMA) and 1 μg/ml calcium ionophore. The production of IL-2 was then assessed in culture supernatants by ELISA.

Data set [4] has as its system CD62-L receptor expression by human peripheral blood cells (PBLs). The data set can be described thus: T cell homing: expression of CD62-L receptor, flow cytometry. It counts as cell-based. As to conditions: for CD62-L expression (MFI: mean fluorescence intensity) (D) % relative to control / IC50: human PBLs, 72 h; for IC50: % inhibition relative to control, read-out: CD62-L expression (D): IC50 value (concentration at which the compound induces 50% of mycolactone maximal activity); for CD62-L expression (D): corresponding % of mycolactone activity (in brackets): relative to mycolactone (100%). The protocol:
(D) The effect of mycolactone and variants on T cell homing was assessed through their inhibitory effect on the expression of CD62-L receptor by human peripheral blood cells (PBLs). Human PBLs were isolated from total blood by Ficoll density gradient centrifugation. They were incubated in 96-well plates (10^5 cells/well in RPMI 1640 medium supplemented with 10% fetal calf serum and 2 mM L-Glutamine) with mycolactone or variant for 72 h. Cells were then fixed for 20 min in 4% paraformaldehyde (PFA) and stained with an anti-CD62-L antibody coupled with phycoerythrin in a solution of PBS, BSA 0.5%, saponin 0.05%, then analysed by flow cytometry.

Take `CC(=C/C=C/C(C)=C/[C@H](O)[C@@H](O)C[C@H](C)O)C=C(C)/C=C/C(=O)O[C@H]1CCCC(=O)O[C@@H]([C@@H](C)C/C(C)=C/[C@@H](C)[C@H](O)C[C@@H](C)O)C/C=C/C[C@@H]1C` (racemic) [Compound 20a, (6S,7S,9E,12R)-12-[(2S,4E,6R,7R,9R)-7,9-dihydroxy-4,6-dimethyldec-4-en-2-yl]-7-methyl-2-oxo-1-oxacyclododec-9-en-6-yl(2E,4E,6E,8E,10E,12S,13S,15S)-12,13,15-trihydroxy-4,6,10-trimethylhexadeca-2,4,6,8,10-pentaenoate]: the results for the “Metabolic activity (MA: mean absorbance) (A) % relative to control” value (shortened to “Metabolic activity … (A) % relative to control”) in data set [1] (0.4 μM), in data set [1] (4 μM) and in data set [1] (8 μM) were 0%, 10% and 30%, respectively. The IC50 in data set [1] (Homo sapiens) was determined as 14 µM; in data set [3] (Homo sapiens) it was 6 µM. Further, the “cytopathic activity, reduction compared to mycolactones A/B” value in data set [1] is recorded as 4 fold. Also, the “Metabolic activity (A): corresponding % of mycolactone activity (in brackets)” value (from here on “Metabolic activity (A): corresponding %”) in data set [1] is 25%. In addition, the “cytotoxicity compared to mycolactones A/B” value in data set [2] is given as “equivalent cytotoxicity”. Also, the results for the “Cytokine production (M.A.: mean absorbance) (C) % relative to control” value (from here on “Cytokine production … (C) % relative to control”) in data set [3] (0.4 μM), in data set [3] (4 μM) and in data set [3] (8 μM) were 0%, 40% and 70%, respectively. Besides, in data set [3], the “Cytokine production (C): corresponding % of mycolactone activity (in brackets)” value (from here on “Cytokine production (C): corresponding %”) is given as 1.6%.

`CC(=C/C=C/C(C)=C/[C@H](O)[C@@H](O)C[C@@H](C)O)C=C(C)/C=C/C(=O)O[C@H]1CCCC(=O)O[C@@H]([C@@H](C)C/C(C)=C/[C@@H](C)[C@H](O)C[C@@H](C)O)C/C=C/C[C@@H]1C` (racemic) [Compound 20b, (6S,7S,9E,12R)-12-[(2S,4E,6R,7R,9R)-7,9-dihydroxy-4,6-dimethyldec-4-en-2-yl]-7-methyl-2-oxo-1-oxacyclododec-9-en-6-yl(2E,4E,6E,8E,10E,12S,13S,15R)-12,13,15-trihydroxy-4,6,10-trimethylhexadeca-2,4,6,8,10-pentaenoate]: the “Metabolic activity … (A) % relative to control” value was 0% in data set [1] (0.4 μM), 10% in data set [1] (4 μM) and 15% in data set [1] (8 μM). Further, the IC50 was found to be 15 µM in data set [1] (Homo sapiens), 4 µM in data set [3] (Homo sapiens) and 8 µM in data set [4] (T-cell). For the same molecule, in data set [1], the “cytopathic activity, reduction compared to mycolactones A/B” value is recorded as 4 fold. For the same molecule, the “Metabolic activity (A): corresponding %” value in data set [1] was determined as 23%. The “cytotoxicity compared to mycolactones A/B” value in data set [2] was “equivalent cytotoxicity”. In addition, the “Cytokine production … (C) % relative to control” value in data set [3] (0.4 μM) is listed as 20%; in data set [3] (4 μM) it was 55%; in data set [3] (8 μM), 92%. The “Cytokine production (C): corresponding %” value in data set [3] came out at 2.5%. The “CD62-L expression (MFI: mean fluorescence intensity) (D) % relative to control” value (shortened to “CD62-L expression … (D) % relative to control”) in data set [4] (4 μM) amounted to 0%; in data set [4] (8 μM), 50%. In data set [4], the “CD62-L expression (D): corresponding % of mycolactone activity (in brackets)” value (“CD62-L expression (D): corresponding %” for short) was 0.4%.

Take `C/C(=C\[C@@H](C)[C@H](O)C[C@@H](C)O)C[C@H](C)[C@H]1C/C=C/C[C@H](C)[C@@H](O)CCCC(=O)O1` [Compound 11c, (6 S,7 S,9E,12R)-12-[(2S,4E,6R,7R,9R)-7,9-dihydroxy-4,6-dimethyldec-4-en-2-yl]-6-hydroxy-7-methyl-1-oxacyclododec-9-en-2-one]: the “effect on the metabolic activity of HeLa cells” value in data set [1] is listed as “showed inhibitory effect”. For the same molecule, the “Metabolic activity … (A) % relative to control” value stood at 0% in data set [1] (0.4 μM), 30% in data set [1] (4 μM) and 40% in data set [1] (8 μM). In addition, the IC50 in data set [1] (Homo sapiens) worked out at 16 µM; in data set [3] (Homo sapiens), 8 µM; in data set [4] (T-cell), 16 µM. Moreover, in data set [1], the “Metabolic activity (A): corresponding %” value is recorded as 20%. Also, the cytotoxicity entry in data set [2] (in the conditions tested) is recorded as “not cytotoxic”. Further, the “inhibition of IL-2 production by lymphocytes” value in data set [3] is on record as “significant inhibition”. In addition, the “Cytokine production … (C) % relative to control” value in data set [3] (0.4 μM) was 0%; in data set [3] (4 μM), 30%; in data set [3] (8 μM), 50%. Further, the “Cytokine production (C): corresponding %” value in data set [3] worked out at 1.2%. In data set [4], the “inhibition of CD62-L expression by lymphocytes” value is “significant inhibition”. For the same molecule, the “CD62-L expression … (D) % relative to control” value in data set [4] (4 μM) is recorded as 20%; in data set [4] (8 μM), 40%. Besides, in data set [4], the “CD62-L expression (D): corresponding %” value amounted to 0.2%.

As to “2,2-difluoro-4,6,10,12-tetramethyl-8-(4-{1-[(2S)-2-[(2R,4E,7S,8S)-7-methyl-12-oxo-8-{[(2E,4E,6E,8E,10E,12S,13S,15S)-12,13,15-trihydroxy-4,6,10-trimethylhexadeca-2,4,6,8,10-pentaenoyl]oxy}-1-oxacyclododec-4-en-2-yl]propyl]-1H-1,2,3-triazol-4-yl}butyl)-1λ^5,3-diaza-2λ^4-boratricyclo[7.3.0.0^3,7]dodeca-1(12),4,6,8,10-pentaen-1-ylium [Compound 28]”, the results for the “Metabolic activity … (A) % relative to control” value in data set [1] (0.4 μM), in data set [1] (4 μM) and in data set [1] (8 μM) were 0%, 20% and 35%, respectively. Also, the IC50 in data set [1] was > 16 µM; in data set [3], 4 µM. In data set [1], the “Metabolic activity (A): corresponding %” value was < 20%. The entries for the “Cytokine production … (C) % relative to control” value in data set [3] (0.4 μM), in data set [3] (4 μM) and in data set [3] (8 μM) were 20%, 50% and 70%, respectively. Also, the “Cytokine production (C): corresponding %” value in data set [3] was 2.5%.

With “2,2-difluoro-8-(4-{1-[(2S)-2-[(2R,4E,7S,8S)-8-hydroxy-7-methyl-12-oxo-1-oxacyclododec-4-en-2-yl]propyl]-1H-1,2,3-triazol-4-yl}butyl)-4,6,10,12-tetramethyl-1λ^5,3-diaza-2λ^4-boratricyclo[7.3.0.0^3,7]dodeca-1(12),4,6,8,10-pentaen-1-ylium [Compound 29]”, the “Metabolic activity … (A) % relative to control” value in data set [1] (0.4 μM) came out at 0%; in data set [1] (4 μM), 30%; in data set [1] (8 μM), 40%. In addition, the IC50 in data set [1] came out at 16 µM; in data set [3], 3 µM; in data set [4], 2 µM. Further, in data set [1], the “Metabolic activity (A): corresponding %” value is recorded as 20%. In addition, the “Cytokine production … (C) % relative to control” value was found to be 18% in data set [3] (0.4 μM), 70% in data set [3] (4 μM) and 95% in data set [3] (8 μM). Further, the “Cytokine production (C): corresponding %” value in data set [3] came out at 3.3%. Moreover, the “CD62-L expression … (D) % relative to control” value in data set [4] (4 μM) and in data set [4] (8 μM) was 100% each time. In addition, the “CD62-L expression (D): corresponding %” value in data set [4] worked out at 1.5%.
